The results in this text go back to patent US5045566A, “Novel imidate insecticides” (ICI Americas Inc., priority 1989, dated 1991).

Some results are limits rather than exact numbers.

What all share (assay type): in vivo
Assay [1] relates to Housefly [Musca domestica]. In words: Housefly contact mortality in dishes (HF), 48 hours. As to conditions: μg of test compound per 25 female flies. The protocol:
(§1) The compounds in Tables 1 and 2 above were tested for insecticidal activity using the following testing procedures. LC50 values, based on the results of these tests and calculated according to dosage-mortality curves, are expressed in Table 3.
Housefly [Musca domestica]:
Test compounds were diluted in acetone and aliquots pipetted onto the bottom of aluminum dishes. To ensure even spreading of the chemical on the bottom of the dishes, 1 ml of acetone containing 0.01% peanut oil was also added to each dish. After all solvents had evaporated, the dishes were placed in circular cardboard cages containing 25 female houseflies, 1-2 days old. The cages were covered on the bottom with cellophane and on the top with tulle netting, and each contained a sugar-water saturated cotton plug for maintenance of the flies. Mortality was recorded after 48 hours. Test levels ranged from 100 μg/25 female houseflies downward. The LC-50 value is expressed below in Table 3 under the heading "HF", in terms of μg of the test compound per 25 female flies.

Assay [2] deals with Tobacco Budworm [Heliothis virescens (Fabricius)] eggs. In words: Tobacco budworm eggs (TBW-E). As to conditions: percent in solution; 2-day old eggs. The protocol: as §1
Tobacco Budworm [Heliothis virescens (Fabricius)]:
(b). Eggs: Paper towel patches of 2-day old eggs of the tobacco budworm were dipped in acetone solutions of the test compound and placed in petri dishes containing a portion of larval rearing medium. Treated eggs were maintained at 78° F. and mortality was recorded after all control eggs had hatched and the young larvae were feeding on the media. Test concentrations ranged from 0.1% downward. The LC-50 value is expressed below in Table 3 under the heading "TBW-E" in terms of percent of the test compound in the solution.

In assay [3] the test system is Cabbage Looper [Trichoplusia ni (Hubner)]. Put plainly: Cabbage looper leaf dip (CL), 3-5 days. As to conditions: percent in solution, second-instar larvae. The protocol: as §1
Cabbage Looper [Trichoplusia ni (Hubner)]:
Test compounds were diluted in a 50-50 acetone-water solution. Cotyledons of hyzini squash (Calabacita abobrinha), approximately 1×1.5 inches, were immersed in the test solutions for 2-3 seconds and placed on a wire screen to dry. The dried leaves were placed in petri dishes containing a moistened piece of filter paper and infested with 5 second-instar cabbage looper larvae. The dishes were placed in a high humidity chamber. Mortality of the larvae was recorded 3-5 days later. Test concentrations ranged from 0.1% downward. The LC-50 value is expressed below in Table 3 under the heading "CL" in terms of percent of the test compound in solution.

Regarding `CC(C)C(=Nc1ccc2c(c1)OC(C)(C)O2)OCc1cccc(Oc2ccccc2)c1` [Compound 182], in assay [1], the “LC50 HF” value worked out at 28 µg. Besides, the “LC50 TBW E (eggs)” value in assay [2] is listed as 0.04%. Moreover, the “LC50 CL” value in assay [3] is 0.0006%.

With `CC(C)C(=Nc1ccc2c(c1)OCO2)OCc1cccc(Oc2ccccc2F)c1` [Compound 183], the “LC50 HF” value in assay [1] stood at 10 µg. Also, the “LC50 TBW E (eggs)” value in assay [2] is reported as 0.075%. The “LC50 CL” value in assay [3] is 0.00075%.

For `CCCC(=Nc1ccc(OC)cc1)OCc1cccc(Oc2ccccc2)c1` [Compound 184], the “LC50 HF” value in assay [1] was found to be 61 µg. Further, the “LC50 TBW E (eggs)” value in assay [2] was more than 0.1%. The “LC50 CL” value in assay [3] turned out to be 0.024%.

Regarding `CCC(C)C(=Nc1ccc2c(c1)OCO2)OCc1cccc(Oc2ccccc2)c1` (stereo not drawn) [Compound 185], the “LC50 HF” value in assay [1] came out at 13 µg. Further, in assay [2], the “LC50 TBW E (eggs)” value came to 0.075%. Moreover, the “LC50 CL” value in assay [3] turned out to be 0.0006%.

For `CC(C)C(=Nc1ccc2c(c1)OCO2)OCc1cccc(Oc2ccccc2F)c1` [Compound 190], the “LC50 HF” value in assay [1] stood at 7.5 µg. In addition, in assay [2], the “LC50 TBW E (eggs)” value came to 0.023%. Also, in assay [3], the “LC50 CL” value was 0.0004%.

Turning to `CC(C)C(=Nc1cccc(C(F)(F)F)c1)OCc1cccc(Oc2cccc(F)c2)c1` [Compound 192], in assay [1], the “LC50 HF” value came out at 25 µg. Moreover, the “LC50 TBW E (eggs)” value in assay [2] stood at 0.07%. The “LC50 CL” value in assay [3] came to 0.0012%.

As for `CC(C)C(=Nc1ccc(Cl)c(C(F)(F)F)c1)OCc1cccc(Oc2cccc(F)c2)c1` [Compound 195], the “LC50 HF” value in assay [1] is more than 100 µg. The “LC50 TBW E (eggs)” value in assay [2] is more than 0.1%. Moreover, in assay [3], the “LC50 CL” value worked out at 0.002%.

In the case of `CC(C)C(=Nc1ccc(F)cc1)OCc1cccc(Oc2ccc(F)cc2)c1` [Compound 197], the “LC50 HF” value in assay [1] is more than 100 µg. Further, in assay [2], the “LC50 TBW E (eggs)” value turned out to be 0.05%. The “LC50 CL” value in assay [3] came out at 0.0004%.

With `CC(C)C(=Nc1cccc(F)c1)OCc1cccc(Oc2ccc(F)cc2)c1` [Compound 200], the “LC50 HF” value in assay [1] is 7.5 µg. The “LC50 TBW E (eggs)” value in assay [2] turned out to be 0.1%. For the same compound, the “LC50 CL” value in assay [3] turned out to be 0.00075%.

For the compound `COc1cccc(N=C(OCc2cccc(Oc3ccc(F)cc3)c2)C(C)C)c1` [Compound 201], the “LC50 HF” value in assay [1] amounted to 15 µg. Besides, in assay [2], the “LC50 TBW E (eggs)” value was more than 0.1%. The “LC50 CL” value in assay [3] is on record as 0.004%.

`CC(C)C(=Nc1ccc(Cl)c(Cl)c1)OCc1cccc(Oc2cccc(Cl)c2)c1` [Compound 207]: in assay [1], the “LC50 HF” value is more than 100 µg. Further, in assay [2], the “LC50 TBW E (eggs)” value is on record as more than 0.1%. Moreover, the “LC50 CL” value in assay [3] was determined as 0.008%.

Regarding `CC(C)C(=Nc1ccc(F)c(F)c1)OCc1cccc(Oc2ccc(Br)cc2)c1` [Compound 275], in assay [1], the “LC50 HF” value is 21 µg. In assay [2], the “LC50 TBW E (eggs)” value is on record as 0.045%. Also, the “LC50 CL” value in assay [3] worked out at 0.00012%.

Consider `CC(C)C(=Nc1ccc(F)c(Br)c1)OCc1cccc(Oc2ccc(Br)cc2)c1` [Compound 276], for which the “LC50 HF” value in assay [1] was found to be 39 µg. In addition, the “LC50 TBW E (eggs)” value in assay [2] worked out at 0.1%. Further, the “LC50 CL” value in assay [3] came to 0.002%.

As for `CC(C)C(=Nc1ccc(C2CCCCC2)cc1)OCc1cccc(Oc2ccc(F)cc2)c1` [Compound 280], in assay [1], the “LC50 HF” value was more than 100 µg. Further, the “LC50 TBW E (eggs)” value in assay [2] was more than 0.1%. Moreover, the “LC50 CL” value in assay [3] is on record as 0.024%.

On to `CC(C)C(=Nc1ccc(C(F)(F)F)cc1)OCc1ccc(F)c(Oc2ccc(F)cc2)c1` [Compound 287], for which the “LC50 HF” value in assay [1] was more than 100 µg. In assay [2], the “LC50 TBW E (eggs)” value is on record as more than 0.1%. Also, the “LC50 CL” value in assay [3] is reported as 0.0025%.

Regarding `CC(C)C(=Nc1cccc(OC(F)(F)C(F)F)c1)OCc1cccc(Oc2ccc(F)cc2)c1` [Compound 288], the “LC50 HF” value in assay [1] is more than 100 µg. For the same compound, in assay [2], the “LC50 TBW E (eggs)” value is listed as more than 0.1%. Also, in assay [3], the “LC50 CL” value came to 0.0015%.

Turning to `CCC(CC)C(=Nc1ccc(Cl)cc1)OCc1cccc(Oc2ccc(F)cc2)c1` [Compound 290], the “LC50 HF” value in assay [1] was more than 100 µg. Also, the “LC50 TBW E (eggs)” value in assay [2] is more than 0.1%. The “LC50 CL” value in assay [3] is given as 0.017%.

For `CCC(CC)C(=Nc1cccc(C(F)(F)F)c1)OCc1cccc(Oc2ccc(F)cc2)c1` [Compound 291], the “LC50 HF” value in assay [1] is more than 100 µg. For the same compound, in assay [2], the “LC50 TBW E (eggs)” value was more than 0.1%. For the same compound, in assay [3], the “LC50 CL” value is listed as 0.004%.

In the case of `CC(Br)C(=Nc1ccc(F)c(Cl)c1)OCc1cccc(Oc2ccc(F)cc2)c1` (stereo not drawn) [Compound 305], the “LC50 HF” value in assay [1] is more than 100 µg. The “LC50 TBW E (eggs)” value in assay [2] was more than 0.1%. Moreover, the “LC50 CL” value in assay [3] came to 0.048%.

As to `CC(C)C(=Nc1ccc(C(C)(C)C)c(Cl)c1)OCc1cccc(Oc2ccc(F)cc2)c1` [Compound 308], the “LC50 HF” value in assay [1] is more than 100 µg. Besides, in assay [2], the “LC50 TBW E (eggs)” value is more than 0.1%. In addition, in assay [3], the “LC50 CL” value amounted to 0.009%.

As for `CC(C)(F)C(=Nc1ccc(F)c(Cl)c1)OCc1cccc(Oc2ccc(F)cc2)c1` [Compound 309], the “LC50 HF” value in assay [1] is more than 100 µg. The “LC50 TBW E (eggs)” value in assay [2] is on record as 0.07%. Besides, the “LC50 CL” value in assay [3] amounted to 0.00017%.

With `CC(C)C(=Nc1ccc(Cl)cc1Cl)OCc1cccc(Oc2ccccc2)c1` [Compound 311], the “LC50 HF” value in assay [1] turned out to be 22 µg. The “LC50 TBW E (eggs)” value in assay [2] is given as 0.1%. For the same compound, the “LC50 CL” value in assay [3] worked out at 0.0017%.

Regarding `CC(C)C(=Nc1ccc(Cl)cc1Cl)OCc1cccc(Oc2ccc(F)cc2)c1` [Compound 312], the “LC50 HF” value in assay [1] is more than 100 µg. Besides, the “LC50 TBW E (eggs)” value in assay [2] is more than 0.1%. Besides, the “LC50 CL” value in assay [3] is 0.006%.

Take `CC(C)C(=Nc1ccc2c(c1)OCO2)OCc1ccc(F)c(Oc2ccc(Cl)cc2)c1` [Compound 313]: the “LC50 HF” value in assay [1] is more than 100 µg. The “LC50 TBW E (eggs)” value in assay [2] is 0.013%. In addition, in assay [3], the “LC50 CL” value is given as 0.00025%.

Consider `CCC(C)C(=Nc1ccc(C(C)C)cc1)OCc1cccc(Oc2ccccc2)c1` (stereo not drawn) [Compound 317], for which the “LC50 HF” value in assay [1] is more than 100 µg. Further, the “LC50 TBW E (eggs)” value in assay [2] was 0.03%. Also, the “LC50 CL” value in assay [3] is on record as 0.0045%.

As for `CC(C)(F)C(=Nc1ccc(F)c(F)c1)OCc1cccc(Oc2ccc(F)cc2)c1` [Compound 318], the “LC50 HF” value in assay [1] is 19 µg. The “LC50 TBW E (eggs)” value in assay [2] was more than 0.1%. For the same compound, the “LC50 CL” value in assay [3] came to 0.0007%.

For `CC(C)(F)C(=Nc1cccc(C(F)(F)F)c1)OCc1cccc(Oc2ccc(F)cc2)c1` [Compound 319], in assay [1], the “LC50 HF” value worked out at 44 µg. In addition, in assay [2], the “LC50 TBW E (eggs)” value is more than 0.1%. The “LC50 CL” value in assay [3] is given as 0.0007%.

On to `CCC(=Nc1ccc(C(C)C)cc1)OCc1cccc(Oc2ccc(F)cc2)c1` [Compound 320], for which the “LC50 HF” value in assay [1] was more than 100 µg. Besides, the “LC50 TBW E (eggs)” value in assay [2] is more than 0.1%. Further, the “LC50 CL” value in assay [3] was 0.0075%.

For the compound `CCC(CC)C(=Nc1ccc(C(C)C)cc1)OCc1cccc(Oc2ccccc2)c1` [Compound 321], in assay [1], the “LC50 HF” value was more than 100 µg. Also, in assay [2], the “LC50 TBW E (eggs)” value is given as more than 0.1%. For the same compound, the “LC50 CL” value in assay [3] is listed as 0.05%.

Take `CC(C)c1ccc(N=C(OCc2cccc(Oc3ccc(F)cc3)c2)C(C)(C)C)cc1` [Compound 322]: the “LC50 HF” value in assay [1] is more than 100 µg. Further, the “LC50 TBW E (eggs)” value in assay [2] is more than 0.1%. Further, the “LC50 CL” value in assay [3] is recorded as 0.007%.

For the compound `CC(C)C(=Nc1ccc2c(c1)OCO2)OCc1c(F)c(F)c(F)c(F)c1F` [Compound 464], the “LC50 HF” value in assay [1] is more than 100 µg. Also, in assay [2], the “LC50 TBW E (eggs)” value is reported as more than 0.1%. Moreover, in assay [3], the “LC50 CL” value was 0.08%.
